Values after ≈ are worked out from the molar mass of the structure shown. Values joined by “and” are separate entries in the source; they are usually repeats but may differ in a detail not shown here. Equal values may be shown once. Read-outs that look alike come from different tables or passages of the source.
Columns and labels:
SARS-CoV-2 = experiment: Virus neutralization (VN) assay, scoring of SARS-CoV-2 cytopathic effects (CPE) in Vero E6 cells; type: cell-based

## O=C1CN(/N=C/c2ccc(-c3ccc([N+](=O)[O-])cc3)o2)C(O)=N1 [dantrolene]
SARS-CoV-2
  CPE: no CPE was observed
  Day 2 Read (CPE): 3/3 wells had No CPE and 3/3 walls n34 > 90% CPE
  Day 4 Read (CPE): 3/3 wells had No CPE and 2/3 wells had > J0% CPE and 1/3 wells had > 90% CPE and 3/3 wells had > 90% CPE
  Day 6 Read (CPE): 3/3 wells had No CPE and 2/3 wells had > 90% CPE and 1/3 wells had > 90% CPE and 3/3 wells had > 90% CPE
SARS-CoV-2; 50 μM dantrolene, Day 2
  Day 2 Read (CPE): 3/3 wells had sparse
SARS-CoV-2; 50 μM dantrolene, Day 4
  Day 4 Read (CPE): 3/3 wells had sparse
SARS-CoV-2; 50 μM dantrolene, Day 6, cell wraps on: 'confluency but greater than Day 4'
  Day 6 Read (CPE): 3/3 wells had sparse
SARS-CoV-2; 20 and 40 μM dantrolene, all timepoints
  cytopathic effects (virus growth): No cytopathic effects
SARS-CoV-2; Severe acute respiratory syndrome coronavirus 2, 144 h, SARS-CoV-2 in Vero E6 cells, no CPE across all time points (6 days), read-out: minimum inhibitory concentration
  MIC: 20 µM (≈ 6.29 µg/mL)
SARS-CoV-2; lower concentrations of 10 and 5 μM
  anti-viral activity: also showed anti-viral activity
Vero E6 cells; 50 μM dilution, Day 6 post-infection, decreased compared to lower dilutions
  cell growth at Day 6: rebound cell growth
Vero E6 cells; 50 and 100 μM, Days 2 and 4, both infected cells and uninfected controls
  cytopathic effects at highest concentrations: showed cytopathic effects
Vero E6 cells; African green monkey
  Cytotoxic effects: Cytotoxic effects were only observed at the 2 highest dantrolene concentrations
Vero E6 cells; lower dilutions (<50 μM dantrolene), uninfected
  cell viability of uninfected Vero E6 cells: good cell viability

— US20230149364A1, “METHODS OF TREATING VIRAL INFECTIONS” (EAGLE PHARMACEUTICALS, INC., priority 2020, published 2023)
